# According to paper PMC8219408, “Switching Cytolytic Nanopores into Antimicrobial Fractal Ruptures by a Single Side Chain Mutation” (ACS nano, 2021):
# Where two headings read alike, the source gives them in different places. Bridge positions count the residues as written; N and C are the ends. Square brackets hold non-standard residues; d marks the D form. Peptide text beside a SMILES is read from it. * marks the point of attachment. X1 = CC[C@H](C)CCCCC(=O)*; Dab = NCC[C@H](N)C(=O)O
# Experiments:
# [1] = test system: Human erythrocytes; assay: Hemolysis assay; format: cell-based
# Method: For hemolysis measurements 10% (vol/vol) suspensions of human erythrocytes with peptides were used. Phosphate buffer saline (PBS, 10 mM, pH 7.2) was used to rinse human red blood cells (4x) using repeated centrifugation and re-suspension (3 min, 3000 × g). The cells were incubated for 1 h at room temperature in deionized water (fully hemolysed control), with peptide in PBS or just PBS, which was followed by centrifugation (5 min, 10000 × g). The obtained supernatant was then separated from the pellet, and absorbance (550 nm) was measured in a SpectraMax i3x multi-mode microplate reader (Molecular Devices). Absorbance obtained for the suspension that was treated with deionized water gave complete (100%) hemolysis. Table S1 summarises the results, with the values corresponding to % hemolysis for peptide at 250 μM. All tests were performed in triplicate.
# [2] = test system: P. aeruginosa (ATCC 27853); format: cell-based
# Method: (§1) MIC values were obtained using broth microdilution against different bacteria following the protocols by Clinical and Laboratory Standards Institute. Specifically, each bacterium (100 μL of 0.5–1 × 10^6 CFU per ml) in Mueller Hinton media broth (Oxoid) was incubated in 96-well microtiter plates at 37 °C on a 3D orbital shaker. 100 μL of serial twofold peptide dilutions (from 100 to 0 μM) were used. Following peptide addition, absorbance (600 nm) was measured in a SpectraMax i3x multi-mode microplate reader (Molecular Devices). The lowest peptide concentrations inhibiting visible bacterial growth after 24 h at 37 °C was defined as MICs. All tests were performed in triplicate.
# [3] = test system: B. subtilis (ATCC 6633); format: cell-based
# Method: as §1
# [4] = test system: S. aureus (ATCC 6538); format: cell-based
# Method: as §1
# [5] = test system: E. coli (ATCC 15597); format: cell-based
# Method: as §1
# [6] = test system: K. pneumoniae (NCTC 5055); format: cell-based
# Method: as §1
# [7] = test system: M. luteus (ATCC 49732); format: cell-based
# Method: as §1
# [8] = test system: S. typhimurium (6192); format: cell-based
# Method: as §1
# [9] = target: DLPC/DLPG (3:1 molar ratio) unilamellar vesicles; assay: Isothermal titration calorimetry, anionic vesicles; details: ITC, peptide (500 μM) titrated into DLPC/DLPG (3:1) vesicles (380 μM total lipid), 25 °C, one-set binding model, duplicate; read-out: dissociation constant (KD)
# Method: The lipids used for the assembly of unilamellar vesicles were from Avanti Polar Lipids: 1,2-dilauroylphosphatidylcholine (DLPC) was used for zwitterionic vesicles, while its mixture with 1,2-dilauroyl-sn-glycero-3-phospho-(1’-rac-glycerol) (DLPG) at a 3:1 molar ratio was used for anionic vesicles. After weighting up the lipid aliquots were dissolved in chloroform and dried under a nitrogen stream until a thin film was formed. The obtained film was subjected to hydration in 10 mM phosphate buffer (pH 7.4), which was followed by vortexing (1x, 2 min) and sonication (1x, 30 min). A hand-held extruder (Avanti Polar lipids) was used to extrude the resulting suspension (29x, polycarbonate filter, 0.05 μm) until a clear solution containing small unilamellar vesicles (SUV) was obtained. The SUVs were then analysed (50 nm) using a Zetasizer Nano (ZEN3600, Malvern Instruments, UK) and re-suspended to a final concentration of 1 mg/mL. The measurements were performed using a low volume disposable cuvette at 25°C. […]
# A Microcal isothermal titration calorimeter-200 (ITC-200) was used to carry out all ITC experiments. […] Binding isotherms were recorded for peptides (500 μM) titrated into unilamellar phospholipid vesicles (380 μM, total lipid) in the cell. […]
# [10] = K. pneumoniae (NCTC 5055), broth microdilution (CLSI), Mueller Hinton broth, 24 h at 37 °C, triplicate
Structure (SMILES),"% hemolysis, at 250 μM ([1]; 250 µM, pH 7.2) [%]","Minimum inhibitory concentration ([2]; ATCC 27853, 24 h) [µM]","Minimum inhibitory concentration ([3]; ATCC 6633, 24 h) [µM]","Minimum inhibitory concentration ([4]; ATCC 6538, 24 h) [µM]","Minimum inhibitory concentration ([5]; ATCC 15597, 24 h) [µM]","Minimum inhibitory concentration ([6]; NCTC 5055, 24 h) [µM]","Minimum inhibitory concentration ([7]; ATCC 49732, 24 h) [µM]","Minimum inhibitory concentration ([8]; 6192, 24 h) [µM]",Kd [9] [nM],hemolytic activity (in words) [1],"Minimum inhibitory concentration [6, 10] [µM]","% hemolysis, at 250 μM ([1]; peptide at 250 μM, 10% (vol/vol) human erythrocytes in PBS pH 7.2, 1 h at room temperature, absorbance 550 nm, deionized water = 100%, triplicate) [%]","Minimum inhibitory concentration ([2]; P. aeruginosa (ATCC 27853), broth microdilution (CLSI), Mueller Hinton broth, 24 h at 37 °C, triplicate) [µM]","Minimum inhibitory concentration ([3]; B. subtilis (ATCC 6633), broth microdilution (CLSI), Mueller Hinton broth, 24 h at 37 °C, triplicate) [µM]","Minimum inhibitory concentration ([4]; S. aureus (ATCC 6538), broth microdilution (CLSI), Mueller Hinton broth, 24 h at 37 °C, triplicate) [µM]","Minimum inhibitory concentration ([5]; E. coli (ATCC 15597), broth microdilution (CLSI), Mueller Hinton broth, 0.5–1 × 10^6 CFU per ml, 24 h at 37 °C, absorbance 600 nm, triplicate) [µM]","Minimum inhibitory concentration ([7]; M. luteus (ATCC 49732), broth microdilution (CLSI), Mueller Hinton broth, 24 h at 37 °C, triplicate) [µM]","Minimum inhibitory concentration ([8]; S. typhimurium (6192), broth microdilution (CLSI), Mueller Hinton broth, 24 h at 37 °C, triplicate) [µM]"
CC(C)C[C@H](NC(=O)[C@H](CCCNC(=N)N)NC(=O)[C@H](CC(C)C)NC(=O)[C@H](C)NC(=O)[C@H](CC(C)C)NC(=O)[C@H](CCCNC(=N)N)NC(=O)[C@H](CC(C)C)NC(=O)[C@H](CC(C)C)NC(=O)[C@@H](N)CCCNC(=N)N)C(N)=O [bienA9] (H-RLLRLALRL-NH2; N-terminus assumed),25,50,6,25,6,50,1.5,50,170,,,,,,,,,
CC(C)C[C@H](NC(=O)[C@H](CC(C)C)NC(=O)[C@H](CCCNC(=N)N)NC(=O)[C@H](CC(C)C)NC(=O)[C@H](C)NC(=O)[C@H](CC(C)C)NC(=O)[C@H](CCCNC(=N)N)NC(=O)[C@H](CC(C)C)NC(=O)[C@H](CC(C)C)NC(=O)[C@@H](N)CCCNC(=N)N)C(N)=O [bienA10] (H-RLLRLALRLL-NH2; N-terminus assumed),25,25,1.5,3,3,3,1.5,6,,,,,,,,,,
CC(C)C[C@H](NC(=O)[C@H](C)NC(=O)[C@H](CC(C)C)NC(=O)[C@H](CCCNC(=N)N)NC(=O)[C@H](CC(C)C)NC(=O)[C@H](CC(C)C)NC(=O)[C@@H](N)CCCNC(=N)N)C(=O)N[C@@H](CCCNC(=N)N)C(=O)N[C@@H](CC(C)C)C(=O)N[C@@H](CC(C)C)C(=O)N[C@@H](CCCNC(=N)N)C(N)=O [bienA11] (H-RLLRLALRLLR-NH2; N-terminus assumed),25,3,6,3,3,6,1.5,12,,hemolytic,,,,,,,,
CC(C)C[C@H](NC(=O)[C@H](CCCNC(=N)N)NC(=O)[C@H](CC(C)C)NC(=O)[C@H](CCCCN)NC(=O)[C@H](CC(C)C)NC(=O)[C@H](CCCNC(=N)N)NC(=O)[C@H](CC(C)C)NC(=O)[C@H](CC(C)C)NC(=O)[C@@H](N)CCCNC(=N)N)C(N)=O [bienK9] (H-RLLRLKLRL-NH2; N-terminus assumed),0,6,3,12,3,> 50,1.5,50,2120,,,,,,,,,
CC(C)C[C@H](NC(=O)[C@H](CC(C)C)NC(=O)[C@H](CCCNC(=N)N)NC(=O)[C@H](CC(C)C)NC(=O)[C@H](CCCCN)NC(=O)[C@H](CC(C)C)NC(=O)[C@H](CCCNC(=N)N)NC(=O)[C@H](CC(C)C)NC(=O)[C@H](CC(C)C)NC(=O)[C@@H](N)CCCNC(=N)N)C(N)=O [bienK10] (H-RLLRLKLRLL-NH2; N-terminus assumed),0,25,6,25,3,> 50,1.5,50,,,,,,,,,,
CC(C)C[C@H](NC(=O)[C@H](CC(C)C)NC(=O)[C@H](CCCNC(=N)N)NC(=O)[C@H](CC(C)C)NC(=O)[C@H](CCCCN)NC(=O)[C@H](CC(C)C)NC(=O)[C@H](CCCNC(=N)N)NC(=O)[C@H](CC(C)C)NC(=O)[C@H](CC(C)C)NC(=O)[C@@H](N)CCCNC(=N)N)C(=O)N[C@@H](CCCNC(=N)N)C(N)=O [bienK11] (H-RLLRLKLRLLR-NH2),0,12,3,12,3,> 50,1.5,50,,non-hemolytic,,,,,,,,
"CC[C@H](C)[C@H](NC(=O)CN)C(=O)NCC(=O)N[C@@H](C)C(=O)N[C@H](C(=O)N[C@@H](CC(C)C)C(=O)N[C@@H](CCCCN)C(=O)N[C@H](C(=O)N[C@@H](CC(C)C)C(=O)N[C@H](C(=O)N[C@H](C(=O)NCC(=O)N[C@@H](CC(C)C)C(=O)N1CCC[C@H]1C(=O)N[C@@H](C)C(=O)N[C@@H](CC(C)C)C(=O)N[C@H](C(=O)N[C@@H](CO)C(=O)N[C@@H](Cc1c[nH]c2ccccc12)C(=O)N[C@H](C(=O)N[C@@H](CCCCN)C(=O)N[C@@H](CCCNC(=N)N)C(=O)N[C@@H](CCCCN)C(=O)N[C@@H](CCCNC(=N)N)C(=O)N[C@@H](CCC(N)=O)C(=O)N[C@@H](CCC(N)=O)C(N)=O)[C@@H](C)CC)[C@@H](C)CC)[C@@H](C)O)[C@@H](C)O)C(C)C)C(C)C [melittin, reference compound]",,,,,,,,,,,3,,,,,,,
"CC[C@H](C)CCCCC(=O)N[C@@H](CCN)C(=O)N[C@H](C(=O)N[C@@H](CCN)C(=O)N[C@H]1CCNC(=O)[C@H]([C@@H](C)O)NC(=O)[C@H](CCN)NC(=O)[C@H](CCN)NC(=O)[C@H](CC(C)C)NC(=O)[C@@H](Cc2ccccc2)NC(=O)[C@H](CCN)NC1=O)[C@@H](C)O [polymyxin B, reference compound] (X1-[Dab]T[Dab][Dab][Dab][dF]L[Dab][Dab]T; lactam 4-C (inferred); N-terminus assumed)",,,,,,,,,,,3,5,1.5,3,25,1.5,1.5,1.5
